Measurements published in publication PMC12517324, “Hyperagonism of a Vitamin D Receptor Agonist/Histone Deacetylase Inhibitor Hybrid Molecule” (Journal of Medicinal Chemistry, 2025).

Molecular target: HDAC2 (Homo sapiens, UniProt Q92769)
Assay: Inhibition of purified HDAC2, Boc-Lys(Ac)-AMC substrate
Type: biochemical
Parameters: purchased Cayman Chemical
Settings: 1 h 37 °C

HDAC2, sequence (Q92769 whole entry): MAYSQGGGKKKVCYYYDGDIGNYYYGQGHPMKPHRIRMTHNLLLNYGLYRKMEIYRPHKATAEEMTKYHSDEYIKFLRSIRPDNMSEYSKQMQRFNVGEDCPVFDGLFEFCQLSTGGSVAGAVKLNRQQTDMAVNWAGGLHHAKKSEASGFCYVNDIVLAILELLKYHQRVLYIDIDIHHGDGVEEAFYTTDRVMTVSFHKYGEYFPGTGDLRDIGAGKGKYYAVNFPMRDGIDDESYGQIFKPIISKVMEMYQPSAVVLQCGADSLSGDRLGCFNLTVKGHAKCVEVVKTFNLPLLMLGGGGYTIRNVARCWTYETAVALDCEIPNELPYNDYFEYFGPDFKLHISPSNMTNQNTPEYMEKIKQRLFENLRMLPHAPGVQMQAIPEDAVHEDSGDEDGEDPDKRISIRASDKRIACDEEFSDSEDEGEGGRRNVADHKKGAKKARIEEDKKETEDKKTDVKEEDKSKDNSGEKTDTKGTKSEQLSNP

- IC50: 4.18 µM
SMILES: CCC(CC)(c1ccc(OCCCCCC(=O)NO)cc1)c1ccc(OCC(O)C(C)(C)C)c(C)n1 (stereo not shown) [AM-193]
